For assay [1], the system named is murine CT26 colon carcinoma cells. Description: Compound-induced immunogenic cell death: calreticulin translocation to cell surface (MFI of CRT+ LDV− cells). The class given is cell-based. The note with it: 18 h after treatment, dose titration, FIG. 1B. An excerpt:
(§1) To determine if the RIG-I agonist compounds induce immunogenic cell death in cancer cells, induction of apoptosis and the translocation or of calreticulin (CRT) to the cell surface in murine CT26 colon carcinoma cells were evaluation. The translocation of CRT occurs as part of a specific RIG-I dependent danger-signaling system, and the presence of CRT on the cell membrane promotes tumor antigen uptake by the dendritic cells and leads to the induction of am antigen-specific T cell response
(§2) The induction of apoptosis and the CRT translocation was measured by flow cytometry. […] Cells were harvested 18 h after treatment and then prepared for flow cytometry using an Annexin V staining kit (Biolegend) for quantification of apoptosis, an anti-CRT antibody (Abgent) for calreticulin translocation, and the Live/Dead-Violet staining kit (Thermofisher) for cell viability. Induction of apoptosis and translocation of calreticulin (CRT) to cell surface by live cells was determined by tri-color flow cytometry using FITC-labeled Annexin V, Live/Dead-Violet (LDV), and APC-anti-CRT. Apoptotic cells were defined as Annexin V^+ and calreticulin translocation to cell surface was quantified by mean fluorescent intensity (MFI) of calreticulin^+ live cells (CRT^+ LDV^−). […]

Assay [2] relates to CXCL10 secretion by CT26 cells. The experiment in a line: RIG-I dependent CXCL10 secretion by CT26 colon carcinoma cells (ELISA). The note with it: 10 μM compound, 24 h. The class given is cell-based, murine. A digest of the protocol:
(§3)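 Murine CT26 colon carcinoma cells, and CRISPR-generated RIG-I knockout CT26 cells, were seeded at 1×10^4 cells/well and grown 24 h at 37 °C, 5% CO2, then treated with compounds at 5 to 20 μM. CXCL10 in supernatants was measured by ELISA 24 h after stimulation.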

The subject of assay [3] is murine CT26 colon carcinoma cells. Description: Compound-induced immunogenic cell death: apoptosis (Annexin V+) by flow cytometry. The format is cell-based. The note with it: 18 h after treatment, dose titration, FIG. 1A.
Text: as §1, §2

For assay [4], the system named is IRF3 signaling pathway (IRF-inducible ISG54 promotor) in THP1-Lucia ISG cells. The experiment in a line: THP1-Lucia ISG reporter assay: induction of IRF3-dependent luciferase activity. The format is cell-based. The note with it: Homo sapiens, 10 μM compound, PMA-differentiated cells, 18 h after stimulation, read-out: THP1 ISG: fold increase of IRF3-dependent luciferase activity over background. The essentials:
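PMA-differentiated (100 ng/ml) reporter cells, parental and IRF3−/−, stimulated with compounds at 5–20 μM (mostly 10 μM). Secreted luciferase measured 18 h later. Scored as fold increase over untreated background in bands from "−" (<2.4-fold) to "+++++" (≥40-fold).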

The subject of assay [5] is RIG-I deficient CT26 RIG-1−/− cells. Description: CXCL10 secretion in RIG-I deficient CT26 RIG-1−/− cells (ELISA). The format is cell-based, murine. The note with it: 10 μM compound, 24 h. The essentials:
as §3

Assay [6] concerns THP1-Lucia ISG IRF3 −/− cells. The experiment in a line: IRF3-deficient THP1-Lucia ISG IRF3 −/− reporter assay (counter-screen). The note with it: Homo sapiens, 10 μM compound, 18 h after stimulation, read-out: THP1 ISG IRF3 −/−: fold increase of luciferase activity over background. The format is cell-based. A digest of the protocol:
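PMA-differentiated (100 ng/ml) reporter cells carrying ISRE/ISG54 minimal promoter-driven secreted luciferase were stimulated with compounds at 5–20 μM (mostly 10 μM). Luciferase measured 18 h later and expressed as fold increase over untreated background, binned from "−" (<2.4-fold) to "+++++" (≥40-fold).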
For orientation: A reporter such as luciferase makes a cellular process visible.

Structures are written as SMILES.

`O=C(Nc1c(Cl)cccc1Cl)c1ccc2nc(NC(=O)c3cc4ccccc4cc3OCCCCN3CCOCC3)sc2c1` [Example 19, N-(2,6-dichlorophenyl)-2-{3-[4-(morpholin-4-yl)butoxy]naphthalene-2-amido}-1,3-benzothiazole-6-carboxamide]: the “induction of immunogenic cell death: calreticulin translocation to cell surface” value in assay [1] is recorded as “induction of immunogenic cell death”. In addition, the “CXCL10 secretion by CT26 cells” value in assay [2] is recorded as “++++ (“++++” indicates 800 to 1599 pg/mL)”. The “induction of immunogenic cell death: apoptosis (Annexin V+)” value in assay [3] is given as “induction of immunogenic cell death”. The fold induction at 10 µM in assay [4] was 5 to 9.9; in assay [6], less than 2.4. Moreover, the “CXCL10 secretion by CT26 RIG-I −/− cells” value in assay [5] is reported as “− (“−” indicates less than 100 pg/mL)”.

Values taken from patent US20200071316A1, “ACTIVATORS OF THE RETINOIC ACID INDUCIBLE GENE "RIG-I" PATHWAY AND METHODS OF USE THEREOF” (Kineta Immuno-Oncology LLC, priority 2018, published 2020).
